Converted amounts (≈) assume the structure as drawn.
Tested on: Zymoseptoria tritici
Assay: Fungicidal activity screen in amended agar, 96 well plates
Assay type: cell-based
Conditions: 168 h, 1% potato dextrose agar amended to 20, 2, 0.2 and 0.02 ppm, 10,000 spores/mL, 18° C., assessed after 7 days, read-out: Zymoseptoria (EC50 ranking of fungal growth vs DMSO controls)
Experimental: Compounds were screened in 96 well plates with 10 compounds per plate. Each compound was screened using agar amended to 20, 2, 0.2 and 0.02 ppm of the test material. Proline at 50 and 10 ppm and 0.2% DMSO were used respectively as positive and negative controls. Each test concentration and standard were tested twice on a plate.
Compounds were screened against Zymoseptoria tritici. The agar used in the test was 1% potato dextrose agar. Sufficient spores were added to the appropriate agar to give 10,000 spores/mL agar.
A ×10 stock solution in 2% DMSO was produced for each dose i.e. 200, 20, 2 and 0.2 ppm, and 10 μl of this added to the appropriate wells on the plate. An equivalent amount of 2% DMSO and Proline stock at 500 and 100 ppm were added for the controls. To each well, 90 μl of the appropriate agar spore suspension was added to give the final well concentrations outlined in the first paragraph.
Plates were incubated at room temperature (18° C.) and assessed after 7 days.
The amount of fungal growth in each well was compared to the DMSO controls and scored according to the following key: • A—EC50<2 ppm • B—2≤EC50<20 • C—EC50≥20 • D—No activity detected at the highest dose tested • NT—Not tested

**Q.** For `COc1ccnc2c(=O)n(-c3ccc4nc(Sc5ccc(F)cc5)ccc4c3)c(=S)oc12` [Example 37, 3-(2-((4-fluorophenyl)thio)quinolin-6-yl)-8-methoxy-2-thioxo-2,3-dihydro-4H-pyrido[2,3-e][1,3]oxazin-4-one], which EC50 is on record?
**A.** Its EC50 is under 2 mg/L.

**Q.** How did the EC50 turn out when `COc1ccccc1Oc1ccc2cc(NC(=O)c3nccc(OC)c3O)ccc2n1` [Example 22, 3-hydroxy-4-methoxy-N-(2-(2-methoxyphenoxy)quinolin-6-yl)picolinamide] was run?
**A.** The EC50 was at least 20 mg/L.

**Q.** How did the EC50 turn out when `CCCOc1ccc2cc(NC(=O)c3nccc(OC)c3O)ccc2n1` [Example 3, 3-hydroxy-4-methoxy-N-(2-propoxyquinolin-6-yl)picolinamide] was run?
**A.** The EC50 was under 2 mg/L.

**Q.** Which EC50 does the source give for `COc1ccnc(C(=O)Nc2ccc3cc(Br)ccc3n2)c1O` [Example 15, N-(6-bromoquinolin-2-yl)-3-hydroxy-4-methoxypicolinamide] here?
**A.** The EC50 was 2 to 20 mg/L (≈ 5.34 to 53.4 µM).

**Q.** `COc1ccnc(C(=O)Nc2ccc3nc(Sc4ccc(F)cc4)ccc3c2)c1OC(C)=O` [Example 29, 2-((2-((4-fluorophenyl)thio)quinolin-6-yl)carbamoyl)-4-methoxypyridin-3-yl acetate] was tested. Which EC50 did it give?
**A.** Its EC50 is at least 20 mg/L.

**Q.** With `COc1ccnc(C(=O)Nc2ccc3ncc(Cc4ccccc4)cc3c2)c1O` [Example 13, N-(3-benzylquinolin-6-yl)-3-hydroxy-4-methoxypicolinamide] as the compound, how does the EC50 read?
**A.** Its EC50 is at least 20 mg/L.

**Q.** How did the EC50 turn out when `COc1ccnc(C(=O)Nc2ccc3nc(OCCC(C)C)ccc3c2)c1O` [Example 7, 3-hydroxy-N-(2-(isopentyloxy)quinolin-6-yl)-4-methoxypicolinamide] was run?
**A.** The EC50 was under 2 mg/L.

**Q.** `COc1ccnc2c(=O)n(-c3ccc4nc(Sc5cccnc5Cl)ccc4c3)c(=S)oc12` [Example 45, 3-(2-((2-chloropyridin-3-yl)thio)quinolin-6-yl)-8-methoxy-2-thioxo-2,3-dihydro-4H-pyrido[2,3-e][1,3]oxazin-4-one] was tested. Which EC50 did it give?
**A.** Its EC50 is at least 20 mg/L.

**Q.** For `CCCCOc1ccc2cc(NC(=O)c3nccc(OC)c3O)ccc2n1` [Example 4, N-(2-butoxyquinolin-6-yl)-3-hydroxy-4-methoxypicolinamide], which EC50 is on record?
**A.** The EC50 was 2 to 20 mg/L (≈ 5.44 to 54.4 µM).

**Q.** `COc1ccnc(C(=O)Nc2ccc3nc(Oc4ccccc4Cl)ccc3c2)c1O` [Example 20, N-(2-(2-chlorophenoxy)quinolin-6-yl)-3-hydroxy-4-methoxypicolinamide] was tested. Which EC50 did it give?
**A.** Its EC50 is at least 20 mg/L.

**Q.** For `COc1ccnc(C(=O)Nc2ccc3nc(Sc4ccccc4Cl)ccc3c2)c1OC(C)=O` [Example 33, 2-((2-((2-chlorophenyl)thio)quinolin-6-yl)carbamoyl)-4-methoxypyridin-3-yl acetate], which EC50 is on record?
**A.** The EC50 was at least 20 mg/L.

**Q.** For `COc1ccnc2c(=O)n(-c3ccc4nc(OC(C)C(C)C)ccc4c3)c(=S)oc12` (stereo not drawn) [Example 39, 8-methoxy-3-(2-((3-methylbutan-2-yl)oxy)quinolin-6-yl)-2-thioxo-2,3-dihydro-4H-pyrido[2,3-e][1,3]oxazin-4-one], which EC50 is on record?
**A.** The EC50 was at least 20 mg/L.

**Q.** How did the EC50 turn out when `CCC(C)Oc1ccc2cc(-n3c(=S)oc4c(OC)ccnc4c3=O)ccc2n1` (stereo not drawn) [Example 38, 3-(2-(sec-butoxy)quinolin-6-yl)-8-methoxy-2-thioxo-2,3-dihydro-4H-pyrido[2,3-e][1,3]oxazin-4-one] was run?
**A.** The EC50 was 2 to 20 mg/L (≈ 4.88 to 48.8 µM).

**Q.** For `COc1ccnc(C(=O)Nc2ccc3nc(Oc4ccccc4Cl)ccc3c2)c1OC(C)=O` [Example 30, 2-((2-(2-chlorophenoxy)quinolin-6-yl)carbamoyl)-4-methoxypyridin-3-yl acetate], which EC50 is on record?
**A.** The EC50 was 2 to 20 mg/L.

**Q.** For `COc1ccnc(C(=O)Nc2ccc3nc(Oc4ccc(F)cc4)ccc3c2)c1O` [Example 2, N-(2-(4-fluorophenoxy)quinolin-6-yl)-3-hydroxy-4-methoxypicolinamide], which EC50 is on record?
**A.** The EC50 was under 2 mg/L.

Reference: US12667101B2, “Picolinamide derivatives useful as agricultural fungicides” (GLOBACHEM NV, priority 2019, dated 2026)
